According to PMC12058896, “Potent antimicrobial activity of hydrogel loaded with the antimicrobial peptide, D-Bac8c^2,5 Leu, against monospecies and polymicrobial biofilms of Staphylococcus aureus and Pseudomonas aeruginosa” (Frontiers in Microbiology, 2025):
Non-standard residues stand in square brackets, D forms with d. Residues, ends and D or L forms follow the SMILES beside them.

Test system: monospecies and polymicrobial biofilms of Staphylococcus aureus and Pseudomonas aeruginosa
Test: Static biofilm assays
Type: cell-based
Experimental: Biofilms were formed under static conditions using flat 96-well polystyrene plates as described previously with few modifications ([[…] al., 2018]). Briefly, overnight cultures in BHI were washed and diluted 1:200 in fresh Bolton Broth media supplemented with 50% bovine heparin plasma, and 5% laked horse blood. From this suspension, 100 μL was used to inoculate the microtiter plate wells prior to static incubation at 37°C for 24 h, 3 days and 5 days. The media in each well was changed daily during prolonged incubation periods (3 and 5 days). […] After incubation with D-Bac8c^2,5 Leu, biofilms were washed twice with PBS and biofilm assessment was performed. For the polymicrobial biofilms, a bacterial solution ratio 1:1 of S. aureus and P. aeruginosa at 1 × 10^5 CFU/mL each was used to inoculate the wells. In each assay, inoculated medium without antimicrobials and uninoculated medium served as growth and sterility controls, respectively. […] Viability of biofilm cells after treatment was measured using resazurin-conversion assay as previously described ([Hogan et al., 2016]) (Sigma-Aldrich, Ireland). […] Fluorescence intensity was detected at excitation of 544 nm and emission of 590 nm using a fluorimeter, Perkin Elmer 2030 Multilabeled Reader, Victor 3X. […] After overnight incubation at 37°C, CFU were counted and results were expressed as log10CFU/mL.

CC(C)C[C@@H](NC(=O)[C@H](N)CCCNC(=N)N)C(=O)N[C@H](Cc1c[nH]c2ccccc12)C(=O)N[C@@H](C(=O)N[C@H](CC(C)C)C(=O)N[C@H](Cc1c[nH]c2ccccc12)C(=O)N[C@H](CCCNC(=N)N)C(=O)N[C@H](CCCNC(=N)N)C(N)=O)C(C)C [D-Bac8c^2,5 Leu] (H-[dR][dL][dW][dV][dL][dW][dR][dR]-NH2; N-terminus assumed)
reduction in bacterial load compared to untreated controls (static biofilm assays, summed up in abstract): 2–3 log
minimum concentration needed to inactivate biofilms (static biofilms, 6 h treatment (Figures 1, 2 and Table 3)): 64 µg/mL
